Calls of active or inactive are those of the source.
How the values were obtained:
cells [1] = type: functional, cell-based
cells [2] = type: functional, cell-based; remark: listed apart in the source
Aminopeptidase N = molecular target: T1, Aminopeptidase N (Plasmodium falciparum FcB1/Columbia, UniProt O96935); assay: malaria alanyl aminopeptidase activity blockers – biochemical, fluorogenic H-Leu-NHMec substrate, 1536-well (AID 1445); design: species or system Plasmodium falciparum 3D7, 3D7
T1 sequence (O96935 whole entry): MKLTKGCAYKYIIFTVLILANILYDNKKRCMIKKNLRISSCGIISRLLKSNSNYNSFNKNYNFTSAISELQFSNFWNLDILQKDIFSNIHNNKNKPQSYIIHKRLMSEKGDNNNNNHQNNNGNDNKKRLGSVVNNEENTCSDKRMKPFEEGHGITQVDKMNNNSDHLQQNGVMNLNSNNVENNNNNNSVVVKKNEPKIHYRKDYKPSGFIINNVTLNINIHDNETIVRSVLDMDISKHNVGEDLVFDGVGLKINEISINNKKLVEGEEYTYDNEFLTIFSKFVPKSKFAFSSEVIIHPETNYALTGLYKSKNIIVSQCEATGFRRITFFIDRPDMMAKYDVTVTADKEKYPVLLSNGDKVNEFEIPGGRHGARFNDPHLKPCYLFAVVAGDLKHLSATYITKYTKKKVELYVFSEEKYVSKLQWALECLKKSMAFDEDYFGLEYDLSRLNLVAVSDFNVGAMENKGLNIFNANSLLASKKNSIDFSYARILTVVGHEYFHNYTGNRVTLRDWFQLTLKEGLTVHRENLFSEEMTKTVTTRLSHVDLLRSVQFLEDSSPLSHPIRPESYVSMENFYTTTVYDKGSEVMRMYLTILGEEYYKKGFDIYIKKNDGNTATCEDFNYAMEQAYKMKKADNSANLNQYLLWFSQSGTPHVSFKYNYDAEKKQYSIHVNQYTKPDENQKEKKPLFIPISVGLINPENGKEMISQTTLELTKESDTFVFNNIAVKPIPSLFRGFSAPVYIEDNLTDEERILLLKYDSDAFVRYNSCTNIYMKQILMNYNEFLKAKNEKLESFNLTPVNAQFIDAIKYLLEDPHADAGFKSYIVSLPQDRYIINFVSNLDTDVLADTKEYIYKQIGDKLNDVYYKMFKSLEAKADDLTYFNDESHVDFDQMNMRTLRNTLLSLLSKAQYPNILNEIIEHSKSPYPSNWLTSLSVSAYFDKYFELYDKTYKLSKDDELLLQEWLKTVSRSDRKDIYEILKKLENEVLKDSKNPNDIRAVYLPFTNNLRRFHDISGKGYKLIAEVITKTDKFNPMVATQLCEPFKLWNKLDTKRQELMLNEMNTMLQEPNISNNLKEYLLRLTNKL

[3] = viability of uninfected HEp-2 cells – cell-based, HTS, cytotoxicity control for RSV inhibitor project, dose response (AID 2410); type: functional; conditions: human respiratory syncytial virus
[4] = molecular target: T2, RNA-binding protein pos-1 (Caenorhabditis elegans, UniProt G5EF15); assay: disruptors of C. elegans POS-1 RNA interaction – biochemical, fluorescence polarization, dose response (AID 1964);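 also: purified POS-1 fused to maltose binding protein made in E. coli; potency of compounds blocking POS-1 binding to fluorescent RNA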
T2 sequence (G5EF15 whole entry): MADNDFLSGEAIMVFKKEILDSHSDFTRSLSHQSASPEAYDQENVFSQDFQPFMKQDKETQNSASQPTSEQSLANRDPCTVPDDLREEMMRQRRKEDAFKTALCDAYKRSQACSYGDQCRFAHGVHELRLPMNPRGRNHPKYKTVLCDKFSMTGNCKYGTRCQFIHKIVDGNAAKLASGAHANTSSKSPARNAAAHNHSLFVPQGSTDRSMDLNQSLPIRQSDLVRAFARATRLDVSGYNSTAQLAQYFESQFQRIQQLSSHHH

[5] = molecular target: T3, Zinc finger protein mex-5 (Caenorhabditis elegans, UniProt Q9XUB2); assay: potency of MEX-5 RNA-binding blockers – biochemical, C. elegans, fluorescence polarization, dose response (AID 1960)
T3 sequence (Q9XUB2 whole entry): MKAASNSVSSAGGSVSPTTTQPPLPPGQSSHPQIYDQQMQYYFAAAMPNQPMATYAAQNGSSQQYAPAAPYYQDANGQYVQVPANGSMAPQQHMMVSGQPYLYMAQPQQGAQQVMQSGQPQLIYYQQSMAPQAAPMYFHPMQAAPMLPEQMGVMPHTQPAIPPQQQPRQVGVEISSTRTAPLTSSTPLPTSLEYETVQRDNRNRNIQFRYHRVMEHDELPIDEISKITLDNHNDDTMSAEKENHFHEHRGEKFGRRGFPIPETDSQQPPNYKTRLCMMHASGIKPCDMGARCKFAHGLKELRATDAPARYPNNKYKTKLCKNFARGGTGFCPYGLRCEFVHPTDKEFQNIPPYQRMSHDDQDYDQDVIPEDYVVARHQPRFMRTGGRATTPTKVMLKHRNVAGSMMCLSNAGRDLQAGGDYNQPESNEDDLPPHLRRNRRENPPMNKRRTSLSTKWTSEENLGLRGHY

[6] = molecular target: T4, Replicative DNA helicase DnaB (Mycobacterium tuberculosis, UniProt P9WMR3); assay: DnaB intein splicing inhibitors, dose response, biochemical, cell-free fluorescence (AID 449749); type: functional
T4 sequence (P9WMR3 whole entry): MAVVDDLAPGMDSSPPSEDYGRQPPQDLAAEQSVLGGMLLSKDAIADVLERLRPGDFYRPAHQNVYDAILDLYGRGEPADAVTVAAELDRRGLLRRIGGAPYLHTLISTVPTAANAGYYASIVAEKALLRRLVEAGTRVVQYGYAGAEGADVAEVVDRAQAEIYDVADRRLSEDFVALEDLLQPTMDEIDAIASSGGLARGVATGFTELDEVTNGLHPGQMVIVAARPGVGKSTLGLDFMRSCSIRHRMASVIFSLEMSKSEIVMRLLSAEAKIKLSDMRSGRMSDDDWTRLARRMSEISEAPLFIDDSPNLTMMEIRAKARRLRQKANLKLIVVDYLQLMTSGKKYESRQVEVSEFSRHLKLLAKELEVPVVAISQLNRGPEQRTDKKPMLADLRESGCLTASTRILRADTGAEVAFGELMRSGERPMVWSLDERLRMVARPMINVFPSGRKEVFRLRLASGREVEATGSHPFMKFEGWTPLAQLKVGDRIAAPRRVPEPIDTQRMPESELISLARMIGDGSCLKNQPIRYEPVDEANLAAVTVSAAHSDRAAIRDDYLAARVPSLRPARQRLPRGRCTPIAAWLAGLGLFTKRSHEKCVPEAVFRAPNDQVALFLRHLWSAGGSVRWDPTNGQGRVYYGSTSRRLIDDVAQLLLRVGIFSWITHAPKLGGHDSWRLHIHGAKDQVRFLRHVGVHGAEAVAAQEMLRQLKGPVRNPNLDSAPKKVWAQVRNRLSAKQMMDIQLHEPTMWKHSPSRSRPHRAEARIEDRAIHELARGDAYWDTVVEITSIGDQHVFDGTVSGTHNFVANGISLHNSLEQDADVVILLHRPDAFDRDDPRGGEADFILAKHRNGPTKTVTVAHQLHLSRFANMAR

Protein RecA = molecular target: T5, Protein RecA (Mycobacterium tuberculosis, UniProt P9WHJ3); assay: Fluorescence Cell-Free Homogeneous Dose Retest to Identify Inhibitors of RecA-Intein Splicing Activity. [Related pubchem assays (depositor defined):AID2097, AID2223, AID489010, AID492950]; type: functional
T5 sequence (P9WHJ3 whole entry): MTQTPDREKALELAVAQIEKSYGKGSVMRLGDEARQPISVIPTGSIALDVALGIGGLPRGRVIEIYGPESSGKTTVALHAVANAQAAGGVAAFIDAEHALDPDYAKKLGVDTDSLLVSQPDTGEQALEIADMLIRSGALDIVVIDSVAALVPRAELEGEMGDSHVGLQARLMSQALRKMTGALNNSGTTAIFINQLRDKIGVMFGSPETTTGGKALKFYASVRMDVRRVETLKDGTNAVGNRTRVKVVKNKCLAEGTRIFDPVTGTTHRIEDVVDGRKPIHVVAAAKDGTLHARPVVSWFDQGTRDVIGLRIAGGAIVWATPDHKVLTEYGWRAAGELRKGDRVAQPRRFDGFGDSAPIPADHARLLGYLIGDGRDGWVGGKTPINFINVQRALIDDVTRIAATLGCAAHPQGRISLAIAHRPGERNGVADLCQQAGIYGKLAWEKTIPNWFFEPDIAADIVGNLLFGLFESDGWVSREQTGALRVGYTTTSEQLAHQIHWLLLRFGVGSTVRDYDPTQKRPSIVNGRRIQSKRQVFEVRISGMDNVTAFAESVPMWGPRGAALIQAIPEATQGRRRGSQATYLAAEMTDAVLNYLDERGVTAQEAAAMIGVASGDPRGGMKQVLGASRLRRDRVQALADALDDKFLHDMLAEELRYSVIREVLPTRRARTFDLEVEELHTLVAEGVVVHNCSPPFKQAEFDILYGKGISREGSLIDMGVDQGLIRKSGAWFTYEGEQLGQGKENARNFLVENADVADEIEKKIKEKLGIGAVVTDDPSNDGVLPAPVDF

Cytochrome P450 2C19 = Cytochrome P450 2C19 (Homo sapiens, UniProt P33261); assay: Cytochrome panel assay with activity outcomes. Panel member name: p450-cyp2c19 Compounds with AC50 equal or less than 10 uM are considered active; type: functional; conditions: read-out: AC50
Sequence of Cytochrome P450 2C19 (P33261 whole entry): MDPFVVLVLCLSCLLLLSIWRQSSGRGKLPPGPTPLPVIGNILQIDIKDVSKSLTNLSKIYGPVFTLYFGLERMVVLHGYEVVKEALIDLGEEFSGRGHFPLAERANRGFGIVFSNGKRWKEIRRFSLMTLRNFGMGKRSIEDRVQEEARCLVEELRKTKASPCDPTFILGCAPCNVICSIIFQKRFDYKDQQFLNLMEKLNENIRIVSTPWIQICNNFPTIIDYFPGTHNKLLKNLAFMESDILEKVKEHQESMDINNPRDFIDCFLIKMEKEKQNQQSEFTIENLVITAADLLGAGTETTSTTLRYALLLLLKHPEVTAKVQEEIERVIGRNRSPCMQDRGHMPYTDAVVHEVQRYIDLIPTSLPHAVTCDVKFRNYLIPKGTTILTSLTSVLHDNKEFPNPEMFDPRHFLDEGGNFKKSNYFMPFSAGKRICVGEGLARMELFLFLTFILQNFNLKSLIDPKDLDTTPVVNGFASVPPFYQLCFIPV

Cytochrome P450 2C9 = Cytochrome P450 2C9 (Homo sapiens, UniProt P11712)
Sequence of Cytochrome P450 2C9 (P11712 whole entry): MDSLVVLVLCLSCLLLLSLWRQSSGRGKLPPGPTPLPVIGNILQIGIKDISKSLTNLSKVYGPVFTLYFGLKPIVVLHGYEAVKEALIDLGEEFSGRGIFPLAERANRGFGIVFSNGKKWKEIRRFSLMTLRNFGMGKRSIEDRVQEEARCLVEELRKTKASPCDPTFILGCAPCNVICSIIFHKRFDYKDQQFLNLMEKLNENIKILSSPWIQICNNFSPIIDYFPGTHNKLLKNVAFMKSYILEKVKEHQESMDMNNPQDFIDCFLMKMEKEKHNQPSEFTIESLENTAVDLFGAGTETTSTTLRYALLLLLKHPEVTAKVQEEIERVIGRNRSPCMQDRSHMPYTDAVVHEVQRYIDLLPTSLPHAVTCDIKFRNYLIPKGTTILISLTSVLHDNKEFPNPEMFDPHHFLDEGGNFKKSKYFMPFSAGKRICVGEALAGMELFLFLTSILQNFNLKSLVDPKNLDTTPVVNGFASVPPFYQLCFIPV

[7] = tested on: Streptococcus sp. 'group A'; assay: Streptococcus pyogenes SK(-)GAS viability under kanamycin – luminescence, BacTiterGlo, confirmation, counter-screen for streptokinase expression inhibitor project, dose response (AID 1900); type: functional, organism-based
BJ [8] = assay: BJ-TERT fibroblast viability loss – cell-based, RAS-independent, luminescence, dose response (AID 1933); type: functional; conditions: Homo sapiens
BJ [9] = assay: cells; type: functional, cell-based; conditions: Homo sapiens
BJ [10] = assay: BJ-TERT-LT-ST fibroblast viability loss – cell-based, RAS-independent, luminescence, dose response (AID 1935); type: functional; conditions: Homo sapiens;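 also: BJ fibroblasts immortalized with TERT plus LT and ST oncogenes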
[11] = DRD fibroblast viability loss – cell-based, non-viral oncogenic, luminescence, dose response (AID 1934); type: functional; conditions: Homo sapiens
Streptococcus = assay: GAS UMAA2166 growth inhibition – luminescence, BacTiterGlo, counter-screen for streptokinase expression inhibitor project, dose response (AID 1915); type: functional, organism-based;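 also: potency for reduction of bacterial viability or growth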

Compound: COc1ccc(C(CC(=O)Nc2ccccc2OC)n2cccc2)cc1 (centres undefined)
- EC50 (cells [1]): > 350 µM (not active)
- EC50 (cells [2]): 2.27 µM (active)

Compound: Cc1cccc(OCCn2cccc2/C=C2/C(=O)NC(=O)N(Cc3ccco3)C2=O)c1
- EC50 (cells [1]): > 350 µM (not active)
- EC50 (cells [2]): > 350 µM (not active)

Compound: CCCOc1ccc(C(C)=O)cc1CSc1nc(O)cc(=O)[nH]1
- IC50 (Aminopeptidase N): 109 µM (active)

Compound: CCOC(=O)c1sc(Nc2cccc(Cl)c2)nc1C
- CC50 [3]: > 50 µM (active)
- EC50 (cells [1]): > 350 µM (not active)
- EC50 (cells [2]): 19.5 µM (active)

Compound: Cc1cccc(S(=O)(=O)C(C#N)c2nc3ccccc3nc2N2CCOCC2)c1 (centres undefined)
- EC50 [4]: 163 µM (active)
- EC50 [5]: > 300 µM (not active)

Compound: O=C(COc1ccccc1/C=C1\SC(=O)NC1=O)Nc1ccccc1
- IC50 (Aminopeptidase N): 32.6 µM (active)

Compound: Cc1ccc(C(=O)NC(=S)NNS(=O)(=O)c2ccc(C)cc2)cc1
- EC50 (cells [1]): > 350 µM (not active)
- EC50 (cells [2]): > 350 µM (not active)
- AC50 [6]: 58.9 µM (active)
- EC50 (Protein RecA): 146 µM (active)

Compound: CCOC(=O)N1CCN(c2nc3ccccc3nc2C(C#N)S(=O)(=O)c2ccc(C)cc2)CC1 (centres undefined)
- EC50 [4]: > 300 µM (inconclusive)
- EC50 [5]: 170 µM (inconclusive)

Compound: NS(=O)(=O)c1ccc(-c2cccc(/C=C3\SC(=O)NC3=O)c2)cc1
- EC50 [4]: 13 µM (active)
- EC50 [5]: 16.6 µM (active)

Compound: COc1ccc(OC)c(NC(=O)C2C3C=CC(C3)C2C(=O)NCc2cccnc2)c1 (centres undefined)
- IC50 (Aminopeptidase N): 48.2 µM (active)

Compound: COc1ccc(/C=C/C(O)=C2\C(=O)NC(=O)N(CCC3=CCCCC3)C2=O)cc1OC
- EC50 [4]: 6.09 µM (inconclusive)
- EC50 [5]: > 300 µM (inconclusive)

Compound: COc1ccc(NC(=O)Nc2ccc(Br)cn2)cc1
- EC50 (cells [1]): > 350 µM (not active)
- EC50 (cells [2]): > 350 µM (not active)

Compound: CN1C(=O)C(=Cc2ccc(N3CCCCC3)o2)C(=O)N(C)C1=S
- EC50 [4]: > 300 µM (inconclusive)
- EC50 [5]: > 300 µM (inconclusive)
- AC50 (Cytochrome P450 2C19): 2.82 µM (inconclusive)
- AC50 (Cytochrome P450 2C9): 11.2 µM (inconclusive)

Compound: COc1cccc(NC(=S)N(CCCN2CCOCC2)Cc2cn(C)c3ccccc23)c1
- EC50 (cells [1]): > 350 µM (not active)
- EC50 (cells [2]): > 350 µM (not active)

Compound: O=C(Nc1nc2ccc([N+](=O)[O-])cc2s1)c1c(F)cccc1F
- EC50 (cells [1]): > 350 µM (not active)
- EC50 (cells [2]): 31.2 µM (active)

Compound: COc1cccc(/C=N/NC(=O)c2ccc([N+](=O)[O-])cc2Cl)c1O
- EC50 (cells [1]): 19.1 µM (active)
- EC50 (cells [2]): 172 µM (active)

Compound: Cc1ccc(-n2nc(C)c(/C=N/NC(=O)c3cccc([N+](=O)[O-])c3)c2O)cc1C
- EC50 [7]: 2.02 µM (active)
- EC50 (BJ [8]): 9.53 µM (active)
- EC50 (BJ [9]): 37 µM (active)
- EC50 (BJ [10]): 16 µM (active)
- EC50 [11]: 10 µM (active)
- EC50 (Streptococcus): 6.18 µM (active)

Compound: Oc1cccc2cccnc12 [OXYQUINOLINE]
- EC50 (BJ [8]): > 150 µM (not active)
- EC50 (BJ [9]): 125 µM (active)
- EC50 (BJ [10]): > 150 µM (not active)
- EC50 [11]: 17.9 µM (active)

Source: ChEMBL document CHEMBL1201862, “PubChem BioAssay data set” (2004)
